Read-outs that look alike come from different tables or passages of the source.
Assays:
[1] = Bisphosphonate concentration at about 90% saturation in vehicles; assay type: physicochemical
[2] = humans; cited from earlier work
ovariectomized rats = tested on: ovariectomized rats
Text: Ovariectomized rats are a recognised model for bone loss study, as the surgical operation causes an estrogen deficiency which results in rapid bone loss. See Guideline on the evaluation of medicinal products in the treatment of primary osteoporosis, CPMP/EWP/552/95 available for download from the European Medicine Agency at: http://www.emea.europa.eu/.
13-week old rats (Sprague-Dawley, virgin female), 8 per group, were sham operated (group 1-control) or ovariectomized (OVX) (groups 2 to 7) on the day before the first day of treatment. […] The ratio of D-Pyr to Creat is a recognised marker of bone resorption. See, e.g., Christenson RH “Biochemical markers of bone metabolism: an overview” Clin Biochem 1997, 30(8), 573-593.
Femur and L2-L5 lumbar vertebrae block Bone Mineral Density (BMD) were calculated from in vivo Dual-energy X-ray Absorptiometry (DXA) measurement at the same time points with an Hologic apparatus. BMD was also measured ex vivo on dissected femur and L4 vertebrae at the end of the treatment period.

[3] = rat, published data (Lin et al., J Pharm Sci); cited from earlier work
[4] = Solubility of menthol in hydroalcoholic mixtures with bisphosphonate at 90% saturation (GC-FID); settings: QS 100 g phosphate buffer pH 6
[5] = tested on: human abdominal dermatomed skin; assay: In vitro dermal absorption, Franz cell assay; assay type: in vitro ADME
[6] = group 3: OVX rats, 2 μg/kg sc inj daily
[7] = group 4: OVX rats, topical 4.46 mg/kg daily (15.6 mg/kg/d for first 2 weeks)
[8] = group 5: OVX rats, topical 15.6 mg/kg weekly
[9] = group 7: OVX rats, topical 10.85 mg/kg twice weekly (15.6 mg/kg twice a week for first 2 weeks)
[10] = buffered hydroalcoholic solution 90/10 buffer/ethanol

Structure (SMILES): O=P([O-])(O)C(O)(Cc1cccnc1)P(=O)(O)O.[Na+] [Sodium Risedronate]
- anhydrous concentration (w/w) at about 90% saturation ([1]; Water/ethanol ratio (v/v) 50/50): 0.02%
- anhydrous concentration (w/w) at about 90% saturation ([1]; Water/ethanol ratio (v/v) 60/40): 0.17%
- anhydrous concentration (w/w) at about 90% saturation ([1]; Water/ethanol ratio (v/v) 70/30): 0.22%
- anhydrous concentration (w/w) at about 90% saturation ([1]; Water/ethanol ratio (v/v) 80/20): 0.77%
- anhydrous concentration (w/w) at about 90% saturation ([1]; Water/ethanol ratio (v/v) 90/10): 1.66%

Structure (SMILES): NCCCC(O)(P(=O)(O)O)P(=O)(O)O [alendronate, 4-amino-1-hydroxybutylidene-1,1-bisphosphonic acid]
- systemic dose recovered in the urine [2]: approximately 50%
- BMD results compared with subcutaneous injection (group 3) or control (group 1) (ovariectomized rats; OVX rats treated with topical alendronate, groups 4-7): similar
- Ex vivo BMD L4 vertebrae Week 8 (ovariectomized rats; [6]): 0.251 ± 0.012 g/cm^2
- In vivo BMD Vertebrae Evolution (Week 8 − Baseline) (ovariectomized rats; [6]): 0.035 ± 0.01 g/cm^2
- In vivo BMD metaphysis Week 8 (ovariectomized rats; [6]): 0.243 ± 0.029 g/cm^2
- In vivo BMD total femur Evolution (Week 8 − Baseline) (ovariectomized rats; [6]): 0.035 ± 0.015 g/cm^2
- In vivo BMD total femur Week 8 (ovariectomized rats; [6]): 0.291 ± 0.013 g/cm^2
- Ex vivo BMD L4 vertebrae Week 8 (ovariectomized rats; [7]): 0.26 ± 0.01 g/cm^2
- In vivo BMD Vertebrae Evolution (Week 8 − Baseline) (ovariectomized rats; [7]): 0.035 ± 0.012 g/cm^2
- In vivo BMD metaphysis Week 8 (ovariectomized rats; [7]): 0.270 ± 0.032 g/cm^2
- In vivo BMD total femur Evolution (Week 8 − Baseline) (ovariectomized rats; [7]): 0.04 ± 0.008 g/cm^2
- In vivo BMD total femur Week 8 (ovariectomized rats; [7]): 0.302 ± 0.015 g/cm^2
- Ex vivo BMD L4 vertebrae Week 8 (ovariectomized rats; [8]): 0.255 ± 0.017 g/cm^2
- In vivo BMD Vertebrae Evolution (Week 8 − Baseline) (ovariectomized rats; [8]): 0.023 ± 0.012 g/cm^2
- In vivo BMD metaphysis Week 8 (ovariectomized rats; [8]): 0.252 ± 0.009 g/cm^2
- In vivo BMD total femur Evolution (Week 8 − Baseline) (ovariectomized rats; [8]): 0.023 ± 0.016 g/cm^2
- In vivo BMD total femur Week 8 (ovariectomized rats; [8]): 0.293 ± 0.011 g/cm^2
- Ex vivo BMD L4 vertebrae Week 8 (ovariectomized rats; [9]): 0.261 ± 0.015 g/cm^2
- In vivo BMD Vertebrae Evolution (Week 8 − Baseline) (ovariectomized rats; [9]): 0.028 ± 0.008 g/cm^2
- In vivo BMD metaphysis Week 8 (ovariectomized rats; [9]): 0.264 ± 0.027 g/cm^2
- In vivo BMD total femur Evolution (Week 8 − Baseline) (ovariectomized rats; [9]): 0.032 ± 0.025 g/cm^2
- In vivo BMD total femur Week 8 (ovariectomized rats; [9]): 0.304 ± 0.024 g/cm^2
- dermal tolerance problems (ovariectomized rats; groups 4 and 7, topical 15.6 mg/kg/d and 15.6 mg/kg twice a week, doses reduced after 2 weeks): formation of dry scabs
- BMD in the distal metaphysis (part of femur) compared with subcutaneous injection group (group 3) (ovariectomized rats; topically treated groups 4 and 7): statistically higher
- bone recovery after oral administration [3]: 0.9%
- concentration of anhydrous monosodium salt at 90% saturation [1, 10]: 10.4 mg/g
- concentration of anhydrous monosodium salt at 90% saturation ([1]; pure water): 28.09 mg/g

Structure (SMILES): CC1CCC(C(C)C)C(O)C1 (stereo not shown) [menthol]
- Solubility of menthol in the presence of sodium alendronate ([4]; 10 g ethanol absolute): 70 mg/100 g
- Solubility of menthol in the presence of sodium risedronate ([4]; 10 g ethanol absolute): 80 mg/100 g
- Solubility of menthol in the presence of sodium alendronate ([4]; 20 g ethanol absolute): 120 mg/100 g
- Solubility of menthol in the presence of sodium risedronate ([4]; 20 g ethanol absolute): 140 mg/100 g

Structure (SMILES): O=P(O)(O)C(O)(Cc1cccnc1)P(=O)(O)O [risedronate, 1-hydroxy-2-(3-pyridyl)ethylidene-1,1-bisphosphonic acid]
- effect of glycerine on amount recovered in the receptor fluid and the dermis ([5]; FIGS. 12-13): does not significantly increase
- percutaneous absorption: recovery in the receptor fluid and the dermis ([5]; Franz cell, human skin, 24 hrs): does cross the skin
- effect of urea on amount recovered in the receptor fluid and dermis/skin ([5]; buffered solution vs 100% phosphate buffer, FIGS. 10-11): increases
- effect of menthol on amount recovered in the receptor fluid and dermis ([5]; menthol at 90% of saturating concentration in 90/10 phosphate buffer/ethanol vs phosphate buffer solution, FIGS. 6-7): does not increase
- amount recovered in the receptor fluid and the dermis with oleic acid ([5]; oleic acid at 90% of maximum solubility in 90/10 phosphate buffer/ethanol with Tween 80 4.5%, vs 100% phosphate buffer solution): lower
- effect of urea on amount recovered in the receptor fluid and dermis ([5]; urea in phosphate buffer solution, FIGS. 8-9): neutral effect
- effect of propylene glycol (PG) on amount recovered ([5]; vs 100% phosphate buffer solution, FIGS. 10-11): does not significantly affect
- effect of the increase in alcohol content on absorption (percentage of the dose applied) ([5]; water/alcohol solutions, FIGS. 1-2): slightly increased
- concentration of anhydrous monosodium salt at 90% saturation [1, 10]: 22.4 mg/g
- concentration of anhydrous monosodium salt at 90% saturation ([1]; pure water): 45.3 mg/g

From patent US20080167271A1, “PHARMACEUTICAL COMPOSITIONS COMPRISING A BISPHOSPHONATE COMPOUND” (Besins Healthcare SA, priority 2006, published 2008)
